This note sets out measurements from US20260258035A1, “FIVE-MEMBERED AND SIX-MEMBERED NITROGEN-CONTAINING COMPOUND, AND INTERMEDIATE, PREPARATION METHOD AND USE THEREOF” (HANGZHOU SYNRX THERAPEUTICS BIOMEDICAL TECHNOLOGY CO., LTD., priority 2022, published 2026).

The test system of experiment [1] is Human breast squamous carcinoma cells HCC1806. Kind of experiment: Cell function assay (In-Cell Western, PAR/pADPr after MMS). In kind it is cell-based. Conditions: read-out: IC50 (nM) in cell function assay. The method, boiled down: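 HCC1806 cells adhered 24 h at 37 °C, 5% CO2, then were pretreated 1 h with compound (30000 nM down to 1 nM, plus 0 nM) or DMSO. MMS was then added at 0.5 mM final for 1 h before In-Cell Western detection of PAR/pADPr.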

Experiment [2] has as its target PARG (Homo sapiens, UniProt Q86W56). Briefly: Biochemical assay (PARG, TFMU-ADPr substrate).
Experiment [3] concerns HCC1806. Kind of experiment: Cell viability assay (CellTiter-Glo). In kind it is cell-based, Human. Conditions: HCC1806, 7 days, CellTiter-Glo, read-out: IC50 (nM) in cell viability assay.
The mark [4] stands for this setting: HCC1806, In-Cell Western, MMS treatment.
Where [5] appears, read: HCC1806, compound 1 h then 0.5 mM MMS 1 h, PAR/pADPr antibody, In-Cell Western.
The mark [6] stands for this setting: 4 nM PARG, 66.2 uM TFMU-ADPr, 3 min at room temperature.

Molecules are shown by their SMILES. Read-outs that look alike come from different tables or passages of the source.

Sequence of PARG (Q86W56 whole entry): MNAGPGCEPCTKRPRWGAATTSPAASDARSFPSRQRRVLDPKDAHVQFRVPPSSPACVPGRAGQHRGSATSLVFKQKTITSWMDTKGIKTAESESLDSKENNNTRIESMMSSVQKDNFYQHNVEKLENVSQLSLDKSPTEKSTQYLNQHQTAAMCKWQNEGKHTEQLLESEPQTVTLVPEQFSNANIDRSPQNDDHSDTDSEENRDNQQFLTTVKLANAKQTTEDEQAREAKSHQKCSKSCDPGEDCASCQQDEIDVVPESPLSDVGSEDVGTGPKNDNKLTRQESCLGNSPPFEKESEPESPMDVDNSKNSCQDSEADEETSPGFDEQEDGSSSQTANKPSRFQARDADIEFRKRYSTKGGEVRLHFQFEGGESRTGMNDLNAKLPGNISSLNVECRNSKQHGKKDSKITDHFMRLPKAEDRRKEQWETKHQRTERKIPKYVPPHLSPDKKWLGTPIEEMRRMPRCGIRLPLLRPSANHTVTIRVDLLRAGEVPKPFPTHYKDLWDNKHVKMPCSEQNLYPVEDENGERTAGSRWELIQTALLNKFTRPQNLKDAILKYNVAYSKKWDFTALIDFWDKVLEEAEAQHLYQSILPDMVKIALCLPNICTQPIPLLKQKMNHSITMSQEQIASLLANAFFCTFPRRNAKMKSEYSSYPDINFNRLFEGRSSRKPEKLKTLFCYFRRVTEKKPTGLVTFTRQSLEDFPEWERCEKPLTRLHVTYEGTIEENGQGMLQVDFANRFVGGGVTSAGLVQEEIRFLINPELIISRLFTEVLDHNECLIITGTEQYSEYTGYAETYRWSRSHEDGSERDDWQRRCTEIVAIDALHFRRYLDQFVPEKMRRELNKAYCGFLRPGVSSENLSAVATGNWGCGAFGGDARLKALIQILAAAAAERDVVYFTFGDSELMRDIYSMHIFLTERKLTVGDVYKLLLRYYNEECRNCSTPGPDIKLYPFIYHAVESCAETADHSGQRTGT

As usually defined, the IC50 is the concentration needed to halve the response being measured. Regarding `CC(C)C(=O)N1CCN(c2cc(S(=O)(=O)NC3CC3)cn3c(-c4nnc(C(F)F)s4)ncc23)CC1` [Example 69, N-cyclopropyl-3-(5-(difluoromethyl)-1,3,4-thiadiazol-2-yl)-8-(4-isobutyrylpiperazin-1-yl)imidazo[1,5-a]pyridine-6-sulfonamide], the IC50 in experiment [1] (setting [4]) is 9.05 nM; in experiment [1] (setting [5]), < 100 nM; in experiment [2] (setting [6]), < 100 nM; in experiment [2] (PARG, TFMU-ADPr substrate) it was 20 nM; in experiment [3], 432 nM; in experiment [3] (Homo sapiens, HCC1806, 168 h), < 500 nM.

`C[C@@H]1CN(c2cc(S(=O)(=O)NC3(C#N)CC3)cn3c(-c4nnc(C(F)F)s4)ncc23)CCN1C(=O)C1CC1` [Example 75, (R)-N-(1-cyanocyclopropyl)-8-(4-(cyclopropanecarbonyl)-3-methylpiperazin-1-yl)-3-(5-(difluoromethyl)-1,3,4-thiadiazol-2-yl)imidazo[1,5-a]pyridine-6-sulfonamide]: the IC50 in experiment [1] (setting [4]) is 3.78 nM; in experiment [1] (setting [5]) it was < 100 nM; in experiment [2] (setting [6]), < 100 nM; in experiment [2] (PARG, TFMU-ADPr substrate), 13.2 nM; in experiment [3], 370 nM; in experiment [3] (Homo sapiens, HCC1806, 168 h) it was < 500 nM.

As for `CC1(O)CCN(c2cc(S(=O)(=O)NC3(C#N)CC3)cn3c(-c4nnc(C(F)F)s4)ncc23)CC1` [Example 65, N-(1-cyanocyclopropyl)-3-(5-(difluoromethyl)-1,3,4-thiadiazol-2-yl)-8-(4-hydroxy-4-methylpiperidin-1-yl)imidazo[1,5-a]pyridine-6-sulfonamide], the IC50 in experiment [1] (setting [4]) is 122 nM; in experiment [1] (setting [5]), 100 to 500 nM; in experiment [2] (setting [6]) it was < 100 nM; in experiment [2] (PARG, TFMU-ADPr substrate), 7.02 nM; in experiment [3], 6000 nM; in experiment [3] (Homo sapiens, HCC1806, 168 h) it was 5000 to 30000 nM.

`N#CC1(NS(=O)(=O)c2cc(N3CCN(C(=O)C4CC(F)(F)C4)CC3)c3cnc(-c4nnc(C(F)F)s4)n3c2)CC1` [Example 146, N-(1-cyanocyclopropyl)-8-(4-(3,3-difluorocyclobutane-1-carbonyl)piperazin-1-yl)-3-(5-(difluoromethyl)-1,3,4-thiadiazol-2-yl)imidazo[1,5-a]pyridine-6-sulfonamide]: the 50% inhibitory concentration (IC50) was 28.9 nM in experiment [1] (setting [4]); < 100 nM in experiment [1] (setting [5]); < 100 nM in experiment [2] (setting [6]); 11.5 nM in experiment [2] (PARG, TFMU-ADPr substrate); 692 nM in experiment [3]; 500 to 5000 nM in experiment [3] (Homo sapiens, HCC1806, 168 h).

With `[2H]c1nc(-c2nnc(C(F)F)s2)n2cc(S(=O)(=O)NC3(CF)COC3)cc(N3CCN(C(=O)C(C)C)CC3)c12` [Example 153, 3-(5-(difluoromethyl)-1,3,4-thiadiazol-2-yl)-N-(3-(fluoromethyl)oxetan-3-yl)-8-(4-isobutyrylpiperazin-1-yl)imidazo[1,5-a]pyridine-6-sulfonamide-1-d], the IC50 in experiment [1] (setting [4]) was 2.99 nM; in experiment [1] (setting [5]) it was < 100 nM; in experiment [2] (setting [6]) it was < 100 nM; in experiment [2] (PARG, TFMU-ADPr substrate), 5.34 nM; in experiment [3], 352 nM; in experiment [3] (Homo sapiens, HCC1806, 168 h), 500 to 5000 nM.

With `CC1(NS(=O)(=O)c2cc(N3CCC4(CC3)COC4)c3cnc(-c4nnc(C(F)F)s4)n3c2)COC1` [Example 56, 3-(5-(difluoromethyl)-1,3,4-thiadiazol-2-yl)-N-(3-methyloxetan-3-yl)-8-(2-oxa-7-azaspiro[3.5]nonan-7-yl)imidazo[1,5-a]pyridine-6-sulfonamide], the IC50 in experiment [1] (setting [4]) is 22.9 nM; in experiment [1] (setting [5]) it was < 100 nM; in experiment [2] (setting [6]), < 100 nM; in experiment [2] (PARG, TFMU-ADPr substrate), 0.86 nM; in experiment [3], 802 nM; in experiment [3] (Homo sapiens, HCC1806, 168 h), 500 to 5000 nM.

Consider `CC(C)C(=O)N1CCN(c2c(F)c(S(=O)(=O)NC3(C#N)CC3)cn3c(-c4nnc(C(F)F)s4)ncc23)CC1` [Example 52, N-(1-cyanocyclopropyl)-3-(5-(difluoromethyl)-1,3,4-thiadiazol-2-yl)-7-fluoro-8-(4-isobutyrylpiperazin-1-yl)imidazo[1,5-a]pyridine-6-sulfonamide], for which the IC50 in experiment [1] (setting [4]) is 53.2 nM; in experiment [1] (setting [5]), 100 to 500 nM; in experiment [2] (setting [6]), < 100 nM; in experiment [2] (PARG, TFMU-ADPr substrate), 3.66 nM; in experiment [3], 738 nM; in experiment [3] (Homo sapiens, HCC1806, 168 h) it was 500 to 5000 nM.

For the compound `CC(C)C(=O)N1CCN(c2cc(S(=O)(=O)NC3(C)COC3)cn3c(-c4nnc(C(F)F)s4)ncc23)CC1` [Example 43, 3-(5-(difluoromethyl)-1,3,4-thiadiazol-2-yl)-8-(4-isobutyrylpiperazin-1-yl)-N-(3-methyloxetan-3-yl)imidazo[1,5-a]pyridine-6-sulfonamide], the IC50 is 9.32 nM in experiment [1] (setting [4]); < 100 nM in experiment [1] (setting [5]); < 100 nM in experiment [2] (setting [6]); 0.96 nM in experiment [2] (PARG, TFMU-ADPr substrate); 283 nM in experiment [3]; < 500 nM in experiment [3] (Homo sapiens, HCC1806, 168 h).

As for `CC(C)C(=O)N1CC=C(c2cc(S(=O)(=O)NC3(C#N)CC3)cn3c(-c4nnc(C(F)F)s4)cnc23)CC1` [Example 12, N-(1-cyanocyclopropyl)-3-(5-(difluoromethyl)-1,3,4-thiadiazol-2-yl)-8-(1-isobutyryl-1,2,3,6-tetrahydropyridin-4-yl)imidazo[1,2-a]pyridine-6-sulfonamide], the IC50 in experiment [1] (setting [4]) is 9.15 nM; in experiment [2] (setting [6]), < 100 nM; in experiment [2] (PARG, TFMU-ADPr substrate), 2.4 nM; in experiment [3] it was 500 nM; in experiment [3] (Homo sapiens, HCC1806, 168 h), < 500 nM.

For `C#CC1(NS(=O)(=O)c2cc(N3CCN(C(=O)C(C)C)CC3)c3nnc(-c4nnc(C(F)F)s4)n3c2)CC1` [Example 102, 3-(5-(difluoromethyl)-1,3,4-thiadiazol-2-yl)-N-(1-ethynylcyclopropyl)-8-(4-isobutyrylpiperazin-1-yl)-[1,2,4]triazolo[4,3-a]pyridine-6-sulfonamide], the IC50 in experiment [1] (setting [4]) is 32.1 nM; in experiment [1] (setting [5]), < 100 nM; in experiment [2] (setting [6]), < 100 nM; in experiment [2] (PARG, TFMU-ADPr substrate), 2.54 nM; in experiment [3], 5000 nM; in experiment [3] (Homo sapiens, HCC1806, 168 h) it was 5000 to 30000 nM.

Take `[2H]C1([2H])CCC1([2H])NS(=O)(=O)c1cc(N2CCN(C(=O)C(C)C)CC2)c2cnc(-c3nnc(C(F)F)s3)n2c1` (stereo not shown) [Example 57, N-(cyclobutyl-1,2,2-d3)-3-(5-(difluoromethyl)-1,3,4-thiadiazol-2-yl)-8-(4-isobutyrylpiperazin-1-yl)imidazo[1,5-a]pyridine-6-sulfonamide]: the IC50 in experiment [1] (setting [4]) is 1110 nM; in experiment [1] (setting [5]) it was > 1000 nM; in experiment [2] (setting [6]) it was < 100 nM; in experiment [2] (PARG, TFMU-ADPr substrate), 21.2 nM; in experiment [3] (Homo sapiens, HCC1806, 168 h), > 30000 nM.

Take `CC1(C(=O)N2CCN(c3cc(S(=O)(=O)NC4(C#N)CC4)cn4c(-c5nnc(C(F)F)s5)ncc34)CC2)CC1` [Example 76, N-(1-cyanocyclopropyl)-3-(5-(difluoromethyl)-1,3,4-thiadiazol-2-yl)-8-(4-(1-methylcyclopropane-1-carbonyl)piperazin-1-yl)imidazo[1,5-a]pyridine-6-sulfonamide]: the IC50 is 3.59 nM in experiment [1] (setting [4]); < 100 nM in experiment [1] (setting [5]); < 100 nM in experiment [2] (setting [6]); 13.8 nM in experiment [2] (PARG, TFMU-ADPr substrate); 450 nM in experiment [3]; < 500 nM in experiment [3] (Homo sapiens, HCC1806, 168 h).
